Data: US20260055118A1, “VISIBLE LIGHT SENSITIVE PHOTOREMOVABLE PROTECTING GROUPS, PREPARATION PROCESS THEREOF, PHOTOACTIVATABLE CONJUGATES COMPRISING THEM AND USES THEREOF” (HUN-REN TERMÉSZETTUDOMÁNYI KUTATÓKÖZPONT, priority 2022, published 2026)

Experiments:
Format in all cases: physicochemical
[1] = Spectroscopic properties of the target conjugates in PBS; conditions: for ε (molar absorption coefficient): at the absorption maximum
Experimental: All starting materials were obtained from commercial suppliers and used without further purification. Analytical thin-layer chromatography (TLC) was performed on silica gel 60 F254 precoated aluminum TLC plates from Merck. Flash column chromatography was performed on Teledyne Isco CombiFlash® Rf+ automated flash chromatographer with silica gel (25-40 μm) from Zeochem. NMR spectra were recorded on a Varian Inova 500 MHz spectrometer. Chemical shifts (δ) are given in parts per million (ppm) using solvent signals or TMS as the reference. Coupling constants (J) are reported in Hertz (Hz). Analytical RP-HPLC-UV/Vis-MS measurements were employed using a Shimadzu LCMS-2020 instrument applying a Gemini C18 column (100×2.00 mm I.D.) in which the stationary phase is […] with a pore size of 110 Å. The chromatograms were detected by a UV-Vis diode array (190-800 nm) and an ESI-MS detector. The following linear gradient elution profile was applied, 0 min 0% B; 6.5 min 100% B; 7 min 0% B; 8 min. 0% B) with eluent A (2% HCOOH, 5% MeCN and 93% water) and B (2% HCOOH, 80% MeCN and 18% water) at a flow rate of 1.0 mL min-1 at 30° C. The samples were dissolved in MeCN—water mixtures. Spectroscopic measurements were performed on a Jasco FP 8300 spectrofluorometer. Quartz cuvettes with path length of 1 cm were used.
The spectroscopic properties of the target conjugates were determined in PBS. […] Compounds with Q=O have absorption bands in the green-yellow region while Q=CMe2 derivatives absorb in the red (up to 700 nm). All of the compounds have moderate to high absorption coefficients and significant fluorescence. The spectroscopic details can be found in Table 1. In the table, λmax means absorption maximum; λem means fluorescence emission maximum; s means molar absorption coefficient (at the absorption maximum).

[2] = Uncaging experiments, LED irradiation followed by HPLC-UV-MS
Experimental: (§1) The uncaging experiments were performed using green (4 W input power, λmax=549 nm half-width: 16 nm, output power: 72 mW), orange (4 W input power, λmax=605 nm half-width: 10 nm, output power: 140 mW) and red (4 W input power, λmax=658 nm half-width: 10 nm, output power: 210 mW) LEDs as light source. Sample solutions were prepared, each containing 1 ml of solvent (90% v/v water-MeCN or 90% PBS-MeCN or 100% methanol for the photochemical quantum yield determination) and 0.1 mM or 0.05 mM concentration of the photoactivatable conjugates. The samples were irradiated for a given time using continuous water cooling for the light source. Then, the samples were transferred to the HPLC-UV-MS system and the chromatograms were recorded. The traces at 195 nm, 254 nm or 369 nm (dependent on the cargo moieties) and at the absorption maxima of the photoremovable protecting groups (530 nm, 570 nm or 640 nm) were compared and the corresponding peaks were integrated and compared to reference calibration sets. The possible photoproducts were identified by their corresponding m/z value and also from the UV/VIS spectra from the DAD-equipped instrument. For the dark stability experiments, the HPLC sample solutions were kept in the dark and chromatograms were recorded multiple times.
The photouncaging was evaluated by HPLC-MS using green (4 W input power, λmax=549 nm half-width: 16 nm, output power: 72 mW), orange (4 W input power, λmax=605 nm half-width: 10 nm, output power: 140 mW) and red (4 W input power, λmax=658 nm half-width: 10 nm, for Q=CMe2 output power: 210 mW) LED irradiation. For all compounds the experiments were performed in 90% water/MeCN mixtures as well as in 90% PBS/MeCN (0.1 mM concentration). In all cases, the irradiation led to the release of the model active agents with significant differences based on the photoremovable protecting group, cargo unit and the connecting chemical moiety as well as on the water content of the uncaging medium. Comparing the green light absorbing target conjugates, irradiation of 39 led to the release of 54% phenylacetic acid in 60 s (FIG. 6b), while 180 s (for 50%) was required for the same result in case of 41. Approximately 65% of phenylacetic acid was released after 180 s of irradiation with orange light from model target conjugate 41 (FIG. 6a). The current state of the art BODIPY derivative (for the structure, see the next section),^20,21 released only 12% phenylacetic acid after irradiation for 1800 s. Contrary to the general expectations that increasing the wavelength diminishes photolysis rates, the uncaging of the redshifted Q=CMe2 derivative 43 was also very effective, reaching >70% release of phenylacetic acid in 120 s after red light irradiation (FIG. 6c). The high efficiency of 43 as a red light-activatable photoremovable protecting group was also compared to a π-extended BODIPY derivative (substrate 7 in REF^21, using methanol as the solvent in a concentration of 0.1 mM), the current state of the art in this region of visible light.
Importantly, except in the case of compounds wherein the connecting chemical moiety was a carbonate moiety (i.e., compound 51, FIG. 6f), the target conjugates were stable in water as well as in PBS for 24 hours in the dark. The stability and uncaging rates of several leaving groups was also assessed. Comparing the most important functional groups (carboxylic acid, amine, phenol, alcohol) in potential active agents connected via the typical linkages in the target conjugates, the carbonate bond was the most labile (compound 51, >70% decomposition in 30 s with red light at 50% power) although the long-term dark stability was poor. None of the other model active agents were released in significant quantities, however, after 24-28 hours in the dark (for dark stability data see FIGS. 6a-6h, right side).
Using HPLC-MS, not only the appearance of the released model active agents could be monitored but also the products of photolysis were detectable. […]

[3] = Uncaging quantum yield determination relative to BODIPY reference; conditions: for ε × Φu, uncaging cross-section / quantum efficiency: at the wavelength in parentheses beside each value (538-660 nm); for Φu, uncaging quantum yield: calculated from active agent release; for Φu, uncaging quantum yield / Φdeg, degradation quantum yield: green light irradiation; for Φdeg, degradation quantum yield: calculated from the disappearance of the target conjugate
Experimental: The relative photochemical quantum yields of the uncaging reactions together with the degradation quantum yields were determined from the results of the quantitative HPLC-UV experiments. In all cases, green light irradiation was used since all target conjugates absorbed in this range as well as the reference BODIPY. The photochemical quantum yields were determined using the following equation:
[formula] • where • Φu is the photochemical quantum yield of the sample • Φu,ref is the photochemical quantum yield of the reference • k is the obtained reaction rate constant of the photoreaction of the sample • kref is the obtained reaction rate constant of the photoreaction of the reference • c is the concentration of the sample • cref is the concentration of the reference • V is the volume of the sample • Vref is the volume of the reference • a is the absorption correction factor of the sample • aref is the absorption correction factor of the reference
The absorption correction factors (a) were determined from the molar absorption coefficients and the green LED emission data obtained by the fluorimeter. […] In other words, the transmittance at each wavelength together with the emission data of the light source can be used to calculate the percentage of absorbed photons according to the following equation:
[formula] • where • T(λ) is the transmittance at each wavelength (determined from the molar absorption coefficients) • F(λ) is the LED emission at each wavelength • λmin, λmax is the LED emission range.
The rate constants of the photoreactions were determined by considering the reactions monoexponential with an initial linear phase (up to 10-20% degradation). First, the concentration vs. HPLC-UV peak were determined for each cargo moieties. […] The rate constants were determined for both the reference (with known Φu) and the sample. For reference, a commonly known BODIPY derivative was used with a similar phenylacetic acid-derived cargo unit (substrate 7 from REF^40), Φu=0.15%:
The calculated photochemical quantum yields together with uncaging cross-sections or quantum efficiencies (product of the molar absorption coefficient at a given wavelength, shown in parentheses and the photochemical quantum yield) are shown in Table 2. In the table, Φu is the photochemical quantum yield of the release; Φdeg is the photochemical quantum yield of degradation; ε×Φu is the uncaging cross-section or quantum efficiency of the release at a given wavelength in parentheses.

[4] = Dark stability experiments (HPLC); conditions: water and PBS, 24 hours in the dark
Experimental: as §1, with “The traces at 195 nm, 254 nm or 369 nm (dependent on the cargo moieties) and at the absorption maxima of the photoremovable protecting groups (530 nm, 570 nm or 640 nm) were compared and the corresponding peaks were integrated and compared to reference calibration sets. The possible photoproducts were identified by their corresponding m/z value and also from the UV/VIS spectra from the DAD-equipped instrument.” left out
Importantly, except in the case of compounds wherein the connecting chemical moiety was a carbonate moiety (i.e., compound 51, FIG. 6f), the target conjugates were stable in water as well as in PBS for 24 hours in the dark. The stability and uncaging rates of several leaving groups was also assessed. […] None of the other model active agents were released in significant quantities, however, after 24-28 hours in the dark (for dark stability data see FIGS. 6a-6h, right side).

SMILES: CC(OC(=O)Cc1ccccc1)C1=C2C=CC(=[N+]3CCCC3)C=C2C(C)(C)c2cc(N3CCCC3)ccc21.[I-] (centres unmarked) [Compound 43, 1-(9,9-dimethyl-10-(1-(2-phenylacetoxy)ethyl)-7-(pyrrolidin-1-yl)anthracen-2 (9H)-ylidene)pyrrolidin-1-ium iodide]
- λem (fluorescence emission maximum) [1]: 674 nm
- λmax (absorption maximum) [1]: 641 nm
- ε (molar absorption coefficient) [1]: 86 000 M^−1cm^−1
- increase in the photolysis rate versus π-extended BODIPY derivative ([2]; methanol, 0.1 mM, red light): approximately 5 fold
- release of phenylacetic acid ([2]; red light, 120 s): > 70%
- ε × Φu, uncaging cross-section / quantum efficiency [3]: 1400 M⁻¹ cm⁻¹
- Φu, uncaging quantum yield [3]: 1.7%
- Φdeg, degradation quantum yield [3]: 2.2%

SMILES: CC(OC(=O)Oc1ccccc1)C1=C2C=CC(=[N+]3CCCC3)C=C2C(C)(C)c2cc(N3CCCC3)ccc21.[I-] (centres unmarked) [Compound 51, 1-(9,9-dimethyl-10-(1-((phenoxycarbonyl)oxy)ethyl)-7-(pyrrolidin-1-yl)anthracen-2 (9H)-ylidene)pyrrolidin-1-ium iodide]
- λem (fluorescence emission maximum) [1]: 676 nm
- λmax (absorption maximum) [1]: 643 nm
- ε (molar absorption coefficient) [1]: 73 300 M^−1cm^−1
- decomposition ([2]; red light at 50% power, 30 s): > 70%
- dark stability [4]: reduced and poor
- ε × Φu, uncaging cross-section / quantum efficiency [3]: 13 200 M^−1cm^−1
- Φu, uncaging quantum yield [3]: 18%
- Φdeg, degradation quantum yield [3]: 25%

SMILES: CC(OC(=O)Cc1ccccc1)c1c2ccc(=O)cc-2oc2cc(N3CCCC3)ccc12 (centres unmarked) [Compound 39, 1-(3-oxo-6-(pyrrolidin-1-yl)-3H-xanthen-9-yl)ethyl 2-phenylacetate]
- λem (fluorescence emission maximum) [1]: 564 nm
- λmax (absorption maximum) [1]: 538 nm
- ε (molar absorption coefficient) [1]: 22 700 M^−1cm^−1
- release of phenylacetic acid ([2]; green light, 60 s): 54%
- ε × Φu, uncaging cross-section / quantum efficiency [3]: 1070 M⁻¹ cm⁻¹
- Φu, uncaging quantum yield [3]: 4.7%
- Φdeg, degradation quantum yield [3]: 6.2%
